Experimental data as given in PMC3763632, “Radiosynthesis and Radiotracer Properties of a 7-(2-[^18F]Fluoroethoxy)-6-methoxypyrrolidinylquinazoline for Imaging of Phosphodiesterase 10A with PET” (Pharmaceuticals, 2012).
Values joined by “and” are separate entries in the source; they are usually repeats but may differ in a detail not shown here. Equal values may be shown once.

What was measured:
[1] = Biodistribution after i.v. injection; assay type: in vivo, female CD-1 mice
Method: The organ distribution of [^18F]IV after i.v. injection was investigated in female CD-1 mice. Time-activity data for ^18F corresponding uptake in peripheral organs, in the brain and in particular in the striatum at 5, 30, 60 and 120 min p.i. are presented in Table 2.
Conscious mice received a tail-vein injection of about 300 kBq of [^18F]IV, dissolved in 200 µL isotonic saline. At 5, 30, 60 and 120 min p.i. animals (n = 3–6 per time) were anaesthetized, and blood and urine samples were taken. After sacrifice, organs of interest were removed, separated, weighed, and radioactivity was measured in a calibrated γ-counter (Wallac WIZARD, Perkin Elmer, Waltham, MA, USA). Striatum was dissected from the brain and investigated separately. The percentage of the injected dose per gram of wet tissue (% ID/g) was calculated by the quotient of tissue counts and initial dose counts, and weight of the tissue sample.

PDE10A = assay: In vivo blocking study (pre-injection of PDE10A inhibitor); parameters: species or system mice
Method: The observed slightly increase in the uptake of radioactivity in most organs might be caused by an increase in the free fraction of [^18F]IV in plasma or changes in physiological parameters such as blood flow due to high concentrations of the blocking compounds.
Specificity of brain and in particular striatal uptake of [^18F]IV was investigated in blocking studies by intraperitoneal injection of 10 mg/kg of I [31] […] (n = 3), dissolved in 200 µL saline at 10 min before the radiotracer. Mice were sacrificed at 60 min p.i., and the radioligand uptake was determined as described above. Data listed in table 2 are given as mean values ± standard deviation (SD).

[2] = blocking with 10 mg/kg I, 60 min p.i.
[3] = blocking with 10 mg/kg MP-10, 60 min p.i.

## COc1cc2c(N3CC[C@@H](Oc4cnc5ccccc5n4)C3)ncnc2cc1OCC[18F] [[^18F]IV, (R)-7-(2-[^18F]Fluoroethoxy)-6-methoxy-4-(3-(quinoxalin-2-yloxy)pyrrolidin-1-yl)quinazoline]
[1]; control, 120 min p.i.
  18F uptake, Bladder: 1.62 ± 0.28 % ID/g Wet Weight
  18F uptake, Blood: 1.05 ± 0.10 % ID/g Wet Weight
  18F uptake, Brain: 0.77 ± 0.10 % ID/g Wet Weight
  18F uptake, Colon: 3.49 ± 2.41 % ID/g Wet Weight
  18F uptake, Femurs: 1.61 ± 0.35 % ID/g Wet Weight
  18F uptake, Femurs (fl.) (flushed): 1.15 ± 0.18 % ID/g Wet Weight
  18F uptake, Gonads: 1.64 ± 0.26 % ID/g Wet Weight
  18F uptake, Heart: 1.33 ± 0.20 % ID/g Wet Weight
  18F uptake, Intestine: 49.3 ± 8.03 % ID/g Wet Weight
  18F uptake, Kidneys: 2.13 ± 0.44 % ID/g Wet Weight
  18F uptake, Liver: 7.05 % ID/g Wet Weight and 7.05 ± 1.10 % ID/g Wet Weight
  18F uptake, Lungs: 1.46 ± 0.26 % ID/g Wet Weight
  18F uptake, Muscles: 0.66 ± 0.01 % ID/g Wet Weight
  18F uptake, Pancreas: 1.41 ± 0.07 % ID/g Wet Weight
  18F uptake, Plasma: 2.13 ± 0.80 % ID/g Wet Weight
  18F uptake, Spleen: 1.21 ± 0.24 % ID/g Wet Weight
  18F uptake, Stomach: 10.1 ± 5.96 % ID/g Wet Weight
  18F uptake, Striatum: 0.83 ± 0.10 % ID/g Wet Weight
  18F uptake, Thymus: 1.26 ± 0.07 % ID/g Wet Weight
  18F uptake, Urine: 30.9 % ID/g Wet Weight and 30.9 ± 8.06 % ID/g Wet Weight
[1]; mice, time not specified
  uptake of radioactivity in femur: ~ 2 % ID/g
  uptake of radioactivity in femur after removal of bone marrow: about 1 % ID/g
PDE10A; 10 mg/kg i.p. 10 min before radiotracer, 60 min p.i., p > 0.05
  change in accumulated radioactivity in PDE10A-expressing organs after pre-injection of MP-10 or compound I: no significant changes
PDE10A; [2]
  18F uptake, Adrenals: 51.1 ± 17.9 % ID/g
  18F uptake, Bladder: 2.20 ± 0.49 % ID/g
  18F uptake, Blood: 1.72 ± 0.16 % ID/g
  18F uptake, Brain: 1.13 ± 0.17 % ID/g
  18F uptake, Colon: 1.07 ± 0.22 % ID/g
  18F uptake, Femurs: 1.62 ± 0.72 % ID/g
  18F uptake, Femurs (fl.) (flushed): 0.81 ± 0.13 % ID/g
  18F uptake, Gonads: 3.30 ± 0.29 % ID/g
  18F uptake, Heart: 2.30 ± 0.22 % ID/g
  18F uptake, Intestine: 44.3 ± 9.58 % ID/g
  18F uptake, Kidneys: 4.01 ± 0.54 % ID/g
  18F uptake, Liver: 12.9 ± 1.08 % ID/g
  18F uptake, Lungs: 2.62 ± 0.44 % ID/g
  18F uptake, Muscles: 1.27 ± 0.25 % ID/g
  18F uptake, Pancreas: 2.25 ± 0.26 % ID/g
  18F uptake, Plasma: 2.70 ± 0.24 % ID/g
  18F uptake, Skin: 2.26 ± 0.82 % ID/g
  18F uptake, Spleen: 2.48 ± 0.68 % ID/g
  18F uptake, Stomach: 13.8 ± 1.65 % ID/g
  18F uptake, Striatum: 1.28 ± 0.27 % ID/g
  18F uptake, Thymus: 2.22 ± 0.08 % ID/g
  18F uptake, Urine: 18.0 ± 9.26 % ID/g
PDE10A; [3]
  18F uptake, Adrenals: 36.0 ± 9.51 % ID/g
  18F uptake, Bladder: 2.93 ± 0.51 % ID/g
  18F uptake, Blood: 1.85 ± 0.50 % ID/g
  18F uptake, Brain: 1.30 ± 0.20 % ID/g
  18F uptake, Colon: 1.78 ± 0.78 % ID/g
  18F uptake, Femurs: 1.73 ± 0.58 % ID/g
  18F uptake, Femurs (fl.) (flushed): 0.92 ± 0.23 % ID/g
  18F uptake, Gonads: 4.10 ± 1.41 % ID/g
  18F uptake, Heart: 2.89 ± 0.42 % ID/g
  18F uptake, Intestine: 14.8 ± 4.16 % ID/g
  18F uptake, Kidneys: 5.87 ± 1.56 % ID/g
  18F uptake, Liver: 17.7 ± 3.87 % ID/g
  18F uptake, Lungs: 2.95 ± 0.86 % ID/g
  18F uptake, Muscles: 1.29 ± 0.37 % ID/g
  18F uptake, Pancreas: 3.19 ± 0.91 % ID/g
  18F uptake, Plasma: 3.34 ± 1.00 % ID/g
  18F uptake, Skin: 2.43 ± 0.44 % ID/g
  18F uptake, Spleen: 3.00 ± 0.79 % ID/g
  18F uptake, Stomach: 14.6 ± 7.83 % ID/g
  18F uptake, Striatum: 1.38 ± 0.30 % ID/g
  18F uptake, Thymus: 2.55 ± 0.62 % ID/g
  18F uptake, Urine: 14.7 ± 7.17 % ID/g
